# Test results reported in patent publication US20240026300A1, “KIDNEY EXTRACELLULAR MATRIX-DERIVED SCAFFOLD FOR CULTURE AND TRANSPLANTATION OF KIDNEY ORGANOID AND METHOD OF PREPARING THE SAME” (CELLARTGEN INC., priority 2020, published 2024).
# Test system: mouse kidney organoid
# Assay: Kidney fibrosis model by TGF-β treatment of kidney organoid
# Type: cell-based
# Description: A kidney fibrosis model was constructed using a kidney organoid cultured in the KEM hydrogel. To this end, kidney fibrosis was induced by treatment of a mouse kidney organoid with TGF-b. On day 9 of kidney organoid culture (subculture once on day 7 and additional culture for 2 days), the kidney organoids were treated with each concentration of TGF-β for 3 days and then analyzed on day 12. A kidney organoid not treated with TGF-β (NT, No treatment) was compared as a control group.
substance,measurement,setting,value
TGF-β,"Acta2 and Colla1 (fibrosis markers) mRNA expression levels, qPCR","TGF-β for 3 days, analyzed day 12",increased in proportion to the increase in treatment concentration
same,kidney organoid morphology and growth,"each concentration of TGF-β for 3 days, analyzed day 12",exhibited morphological changes and did not grow well
same,hydrogel and organoid appearance after TGF-β,organoid cultured in 7 mg/ml KEM hydrogel,the KEM hydrogel contracted and fibrosis-induced organoids agglomerated in a mass
same,"Vimentin, COL1, α-SMA (fibrosis markers) expression, immunostaining",organoids in Matrigel and KEM scaffolds,expression of all fibrosis markers was increased
